Results from ChEMBL document CHEMBL3507680, “University of Dundee, Gates Library screen for HepG2 cell viability”.

Assay: Human HepG2 cell viability assay in 384 well format
Assay type: toxicity, cell-based
Parameters: dose 125 nL, time 70.5 hour; cytotoxicity at 70.5 h: concentration not given beside the values
Settings: HepG2 cells, read-out: Inhibition

| SMILES | cytotoxicity at 70.5 h |
| --- | --- |
| Cc1sc(N)nc1-c1ccc(Cl)cc1 | 15.4% |
| Cc1noc(C)c1CN(C)C(=O)NC(C)c1cccs1 (configuration not stated) | 7.59% |
| CCc1ccc(-c2nn3c(nc2=O)-c2ccccc2NC3C(=O)O)cc1 (configuration not stated) | -10.4% |
| COc1cc(C)c(C(C)Nc2ncc(C(N)=O)cc2Cl)cc1OC (configuration not stated) | -12.8% |
| O=C(CSc1nnc[nH]1)NCc1cccs1 | -2.74% |
| Cc1ccc(NC(=O)CS(=O)(=O)NC2CCC(C)CC2)nc1 (configuration not stated) | -2.47% |
| CC1CCC(NS(=O)(=O)CC(=O)Nc2ccc(N3CCCC3)cn2)CC1 (configuration not stated) | -5.53% |
| CC(CNS(=O)(=O)CCCC#N)c1ccsc1 (configuration not stated) | -3.18% |
| Cc1csc(CN(C)C(=O)Nc2cc(F)cc(N3CCCC3)c2)n1 | -11.9% |
| COc1ccc(Br)cc1CCC(=O)N1CCC(O)CC1 | -4.79% |
| CC1CCC(NS(=O)(=O)CC(=O)Nc2ccccc2N2CCCC2)CC1 (configuration not stated) | -1.66% |
| Cc1cc(NC(=O)Cc2ccccc2O)c[nH]c1=O | -13.3% |
| Cc1cc(NC(=O)Cc2ccccc2O)cnc1N1CCCCC1 | -12.3% |
| COc1c(CNC2(c3ccc(Cl)cc3)CCC2)c(C)nn1C | 5.64% |
| CCOCCC(=O)N(C)c1ccc(F)c(Cl)c1 | -7.99% |
| COc1ccc(Br)cc1CC(=O)N1CCCC1 | -5.85% |
| Cc1cccc(C(C)CNS(=O)(=O)CCCC#N)c1 (configuration not stated) | -8.11% |
| Cc1[nH]ncc1C(=O)N(CC(C)C)CC(O)c1ccc(F)cc1 (configuration not stated) | 14.2% |
| COc1cccc(COCC(=O)NC(C)c2nnc3n2CCC3)c1 (configuration not stated) | 1.6% |
| CCN(C(=O)c1ccc2c(c1)OCO2)C1CC(=O)NC1=O (configuration not stated) | -6.4% |
| O=C(Nc1ccccc1F)C1CSCN1C(=O)CCc1ccco1 (configuration not stated) | -8.52% |
| COc1cc(-n2cccc2)c(Cl)cc1C(=O)NS(C)(=O)=O | 6% |
| CS(=O)(=O)NCCNC(=O)Cc1ccc(Br)s1 | -3.17% |

| SMILES | cytotoxicity at 70.5 h |
| --- | --- |
| c1csc(N2CCN(c3nccn4cnnc34)CC2)n1 | -3.57% |
| CC(C)N(C(=O)CCc1ccco1)C1CCOCC1 | -9.28% |
| COc1ccc(CCC(=O)N(C(C)C)C2CCOCC2)cc1 | -6.93% |
| Cc1ncc(CNC(=O)NC2CCN(C3CCCC3)CC2)s1 | -6.29% |
| Cc1sc(CS(C)(=O)=O)nc1-c1ccc(Cl)cc1 | 14.3% |
| Cc1nc(S(=O)(=O)N2CCSC3(CCCCC3)C2)cn1C | -4% |
| Cc1nc(S(=O)(=O)N2CCC3(CCCCC3)C2)cn1C | -1.45% |
| CCc1cnc(CNC(=O)NC2CCN(C3CCCC3)CC2)s1 | 14% |
| CC(C)CSCCCNC(=O)C1CCOCC1 | -5.98% |
| Cc1sc(CNS(N)(=O)=O)nc1-c1ccc(Cl)cc1 | -2.62% |
| O=C(c1c(O)cnc2ccccc12)N1CCCSCC1 | -1.19% |
| CC(C)CN(CC(O)c1ccc(F)cc1)C(=O)c1csnn1 (configuration not stated) | 14.1% |
| O=C(c1ccc(Br)cc1F)N1CCc2ccncc21 | 3.99% |
| CCN(C(=O)CCc1ccc2[nH]ccc2c1)C1CC(=O)NC1=O (configuration not stated) | -2.25% |
| Cn1cnc2cc(C(=O)NS(=O)(=O)c3ccccc3Cl)ccc21 | -2.15% |
| Cc1sc(CN)nc1-c1ccccc1 | -3.17% |
| Cc1ccc(NC(=O)N2CCCC(N(C)C)C2)c(Br)c1 (configuration not stated) | -3.97% |
| Cc1cc(C(=O)N(CC(C)C)CC(O)c2ccc(F)cc2)[nH]n1 (configuration not stated) | -2.51% |
| COc1ccc(C(C)NCc2cnnn2C)cc1F (configuration not stated) | 2.17% |
| CC(C)CN(CC(O)c1ccc(F)cc1)C(=O)c1cc[nH]n1 (configuration not stated) | -3.9% |
| CC(C)CSCCCNC(=O)C1CCC1 | -2.26% |
| CC(C)CN(CC(O)c1ccc(F)cc1)C(=O)c1cnsn1 (configuration not stated) | -3.42% |
| CCc1nnc2n1CCN(Cc1nc3c(F)cccc3[nH]1)C2 | 11.8% |

| SMILES | cytotoxicity at 70.5 h |
| --- | --- |
| CC(=O)N(C)Cc1ccccc1NC(=O)N(C)CCc1cccs1 | -3.06% |
| COc1ccccc1CNC(C)c1cnc2cc(C)nn2c1C (configuration not stated) | -1.5% |
| Cc1nonc1NC(=O)c1ccc(F)c(COCC2CC2)c1 | 11.9% |
| COC(C)(C)c1noc(C2(C#N)CCCC2)n1 | -1.33% |
| O=C(Nc1ccccc1OC(F)(F)F)C1CCS(=O)(=O)C1 (configuration not stated) | -9.01% |
| c1csc(N2CCN(Cc3nnnn3C3CC3)CC2)n1 | 0.58% |
| CC(NC(=O)N1CCN(c2ncccn2)CC1)c1ccc(C#N)cc1 (configuration not stated) | -4.87% |
| COc1ccc2c(c1)CCCN2C(=O)NCCc1cnn(C)c1 | -11.2% |
| COC(=O)N1CCN(CCCc2nnnn2-c2ccccc2)CC1 | 8.7% |
| CN(CCC(F)(F)F)Cc1nc2ccccc2c(=O)[nH]1 | -3.56% |
| O=C(Nc1ccccc1Oc1cccc(F)c1)C1CCS(=O)(=O)C1 (configuration not stated) | -5.38% |
| Cc1n[nH]cc1CNCC(c1ccsc1)N(C)C (configuration not stated) | -7.79% |
| Cn1cc(C(=O)N2C[C@@H]3CN(S(C)(=O)=O)CCO[C@@H]3C2)cn1 | -0.664% |
| CN1Cc2ccccc2CC2(CCN(C(=O)N3CCOCC3)CC2)C1=O | 24.7% |
| CCN1CCNC(=O)C12CCN(C(=O)Cc1ccsc1)CC2 | 2.23% |
| COc1ccc(S(=O)(=O)N2C[C@@H]3CN(C)CCO[C@@H]3C2)cc1 | -4.18% |
| COCCn1c2c(ccc1=O)CCN(C(=O)CC1CC1)CC2 | -2.25% |
| CC(=O)N1CC[C@H]2OCC[C@@H](C(=O)Nc3cccnc3C)[C@@H]2C1 | -5.24% |
| CC(C)NC(=O)N1CCC2(CC1)Cc1ccccc1CN(C)C2=O | -2.79% |
| N#Cc1ccc(C(=O)N2CCc3c(COCC4CC4)cncc3C2)cc1 | -5.21% |
| COCCNC(=O)C[C@@H]1COC[C@H]2CN(C(=O)C3CCOCC3)C[C@@H]12 | 1.49% |
| O=C(c1ccoc1)N1CCO[C@@H]2CNC[C@@H]21 | -1.42% |
| O=C(CC1CC1)N[C@@H]1CN(C(=O)c2ccoc2)C[C@@H]2CCCO[C@@H]21 | -12.7% |

| SMILES | cytotoxicity at 70.5 h |
| --- | --- |
| COc1cc(N2CCC3(CC(=O)N(Cc4csc(C)n4)C3)C2)ncn1 (configuration not stated) | -6.14% |
| Cc1occc1C(=O)N1C[C@@H]2CCCO[C@@H]2[C@H](NC(=O)CC2CC2)C1 | -7.56% |
| CCCNC(=O)c1cc2c(s1)CCN2c1ncccn1 | 3.12% |
| CN(C)CC(=O)N1Cc2nc(C(=O)N3CCCN(C)CC3)oc2C1 | -7.8% |
| O=C(CC1CC1)N[C@@H]1CN(C(=O)c2cccs2)C[C@@H]2CCCO[C@@H]21 | -7.28% |
| CC(C)C(=O)N1CC[C@H]2N(C)CC[C@@]2(C(=O)Nc2ccccc2)CC1 | -10.2% |
| O=C(C1CCOC1)N1C[C@@H]2CCN(C(=O)c3cscn3)[C@@H]2C1 (some centres not stated) | 14% |
| c1cnc(N2CCc3onc(CN4CCCC4)c3C2)cn1 | 6.11% |
| c1cnc(NCc2noc3c2CN(c2cnccn2)CC3)nc1 | -3.45% |
| Cc1cc(C(=O)NC2CCc3c(ccc(=O)n3CC(C)C)C2)no1 (configuration not stated) | -4.48% |
| CN(C)CCN1CCO[C@@H]2CCN(C(=O)c3cccn3C)CC[C@H]21 | 10.8% |
| Cc1ccc(C(CNCc2c[nH]nc2C)N(C)C)cc1 (configuration not stated) | 11.2% |
| CCc1ccc(CN2C[C@H](OCC(=O)N(C)C)[C@H]3COC[C@H]32)o1 | -0.34% |
| O=C1CCCN1Cc1nnc2n1CCCN(Cc1ccco1)C2 | -0.266% |
| CCc1ccc(CN2C[C@H](OC)[C@H]3COC[C@H]32)o1 | -0.659% |
| CCS(=O)(=O)N1Cc2[nH]nc(COCc3cccnc3)c2C1 | -2.23% |
| O=C(c1cscn1)N1CC[C@@H]2[C@@H]1CCN2C1CCOC1 (some centres not stated) | -1.49% |
| CO[C@H]1CCN(Cc2ccoc2)C[C@@H]1Cc1ccccc1 | 20.5% |
| CO[C@@H]1CCN(Cc2ccoc2)C[C@@H]1Cc1ccccc1 | 1.1% |
| COc1ccc(C[C@H]2CN(Cc3ccoc3)CC[C@@H]2OC)cc1 | -2.46% |
| COCCNC(=O)C[C@@H]1COC[C@H]2CN(CC3CCOCC3)C[C@@H]12 | 1.35% |
| Cc1noc(C)c1C(=O)N1Cc2ncn(C)c2C(COCC(C)C)C1 (configuration not stated) | -7% |
| COCc1cncc2c1CCN(C(=O)c1cccc(C#N)c1)C2 | -8.16% |

| SMILES | cytotoxicity at 70.5 h |
| --- | --- |
| COCc1cncc2c1CCN(C(=O)c1ccc(C#N)cc1)C2 | -10.3% |
| COc1cc(N2C[C@H]3CN(Cc4ccccn4)C[C@H]3C2)ncn1 | -4.15% |
| O=C(c1ccco1)N1CCO[C@@H]2CN(Cc3nccs3)CC[C@@H]2C1 | -6.2% |
| CC(C)COCC1CN(C(=O)c2cscn2)Cc2ncn(C)c21 (configuration not stated) | -6.45% |
| COC(=O)CCC(=O)N1CCCC2(CCCN2Cc2cccc(F)c2)C1 (configuration not stated) | -6.42% |
| Cc1noc(C)c1C(=O)N1Cc2ncn(C)c2C(COCC2CC2)C1 (configuration not stated) | -7.58% |
| CCn1nnc2c1C(COCC(=O)N(C)C)CN(Cc1ccco1)C2 (configuration not stated) | 10.6% |
| Cc1nc(COCC2CN(C(N)=O)Cc3nccn3C2)cs1 (configuration not stated) | -5.1% |
| Fc1cnc(N2CCN3C[C@H](Oc4cncnc4)C[C@H]3C2)nc1 | 5.05% |
| CC(C)CN1CCC(N2CCC(C(=O)N(C)C)CC2)CC1 | 3.98% |
| CN1CCO[C@@H]2CN(S(=O)(=O)c3cccnc3)C[C@@H]2C1 | 2.04% |
| Cc1ccc(O[C@@H]2C[C@H]3CN(c4ncc(F)cn4)CCN3C2)cc1 | -0.913% |
| Cc1cccc(CNC2CC3(CCN(CCO)CC3)c3ccccc32)n1 (configuration not stated) | 2.24% |
| Cc1noc(C)c1CN1CCC2(CCN(Cc3cccc(F)c3)CC2)C1 | -9.09% |
| Cc1ccc(CNC2CC3(CCN(CCO)CC3)c3ccccc32)s1 (configuration not stated) | 4.93% |
| CS(=O)(=O)N1CCO[C@@H]2CCN(Cc3ccncc3)CC[C@H]21 | -6.06% |
| CN(C)C(=O)COCc1cncc2c1CCN(C1CCOCC1)C2 | -7.93% |
| CN(C)C1CCC2(CCN(Cc3nccn3C)CC2)c2ccccc21 (configuration not stated) | -4.41% |
| Fc1cnc(N2CCN3C[C@H](Oc4cccnc4)C[C@H]3C2)nc1 | -3.94% |
| Cc1ccc(CN2CC[C@@H]3OCCN(Cc4ccncc4)[C@H]3CC2)s1 | -6.32% |
